{"source": "patent US7105229B2", "about": "“Coated particles, methods of making and using” (priority 1997, dated 2006)", "experiment": "Solubilization of Paclitaxel in nanostructured phase interior", "assay_type": "physicochemical", "description": "A nanostructured liquid phase containing the antineoplastic drug Paclitaxel was prepared by solubilizing 0.045 grams of Paclitaxel, 0.57 grams of eugenol, […] of soy lecithin (Epikuron 200), 0.33 grams of glycerol, and 0.06 grams of cupric nitrate with 0.61 grams of methanol, and then evaporating off the methanol in an evaporating dish, with stirring during evaporation. An glycerol-rich upper solution was prepared by dissolving 0.09 grams of potassium iodide, 0.05 grams of Pluronic F-68, 0.44 grams of water and 1.96 grams of glycerol. After overlaying the upper phase, the system was sonicated, resulting in the dispersing of Paclitaxel-containing, nanostructured liquid phase into microparticles coated with crystalline iodine. […] The loading of Paclitaxel in the particle interior was quite high, namely on the order of 3 wt %, which in this case was so high that precipitation of some of the Paclitaxel within the interior of each particle may occur since the solubilization of Paclitaxel in this cubic phase at this high loading was metastable. […]", "data": [{"smiles": "CC(=O)O[C@H]1C(=O)[C@@]2(C)[C@H]([C@H](OC(=O)c3ccccc3)[C@]3(O)C[C@H](OC(=O)[C@H](O)[C@@H](NC(=O)c4ccccc4)c4ccccc4)C(C)=C1C3(C)C)[C@]1(OC(C)=O)CO[C@@H]1C[C@@H]2O", "note": "[Paclitaxel]", "values": [{"measurement": "concentration of Paclitaxel in the interior at which solubilization is truly stable (thermodynamic equilibrium)", "setting": "eugenol/soy lecithin/glycerol nanostructured phase of Example 36", "value": "≤ 0.7", "unit": "%"}, {"measurement": "time taken for precipitation of Paclitaxel at metastable loading", "setting": "loading on the order of 3 wt % of interior", "value": "hours or even days"}]}]}
